pIC50, pKd: −log10 of the molar value. ≈ marks a conversion by molar mass, not a printed value. Calls of active or inactive are those of the source. No cut-off for these calls is given here.
Key:
[1] = biological target: T1, Programmed cell death 1 ligand 1 (Homo sapiens, UniProt Q9NZQ7); assay: Binding affinity to PD-L1 (unknown origin) immobilized on carboxy chip assessed as dissociation constant by SPR analysis
Candida albicans [2] = assay: Antifungal activity against FLC-resistant Candida albicans 632 assessed as fungal growth inhibition incubated for 72 hrs by CLSI based susceptibility test; assay type: functional
[3] = biological target: T2, Lanosterol 14-alpha demethylase (Candida albicans (strain SC5314 / ATCC MYA-2876) (Yeast), UniProt P10613); assay: Inhibition of CYP51 in Candida albicans SC5314 assessed as unknown sterol level at 4 ug/ml incubated for 16 hrs by GC-MS analysis (reference value: 5.35 %); design: scale not given: the % may be the effect or the level left; conditions: at 4 µg/mL
T2 sequence (P10613 whole entry): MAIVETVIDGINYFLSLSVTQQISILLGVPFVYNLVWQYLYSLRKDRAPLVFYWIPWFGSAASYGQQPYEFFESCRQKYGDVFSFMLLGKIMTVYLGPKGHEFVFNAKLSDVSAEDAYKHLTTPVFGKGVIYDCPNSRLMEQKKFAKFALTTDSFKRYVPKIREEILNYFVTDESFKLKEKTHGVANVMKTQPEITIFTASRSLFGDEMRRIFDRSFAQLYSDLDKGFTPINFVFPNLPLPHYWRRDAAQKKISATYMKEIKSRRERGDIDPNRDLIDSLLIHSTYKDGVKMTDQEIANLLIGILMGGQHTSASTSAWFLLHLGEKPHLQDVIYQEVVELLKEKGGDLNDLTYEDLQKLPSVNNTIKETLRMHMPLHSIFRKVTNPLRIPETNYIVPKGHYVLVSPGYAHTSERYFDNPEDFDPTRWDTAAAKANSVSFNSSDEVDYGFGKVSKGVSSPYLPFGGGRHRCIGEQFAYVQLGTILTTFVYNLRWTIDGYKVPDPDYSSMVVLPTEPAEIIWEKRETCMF

Candida albicans [4] = assay: Antifungal activity against FLC-resistant Candida albicans 17# assessed as fungal growth inhibition incubated for 72 hrs by CLSI based susceptibility test; assay type: functional
Candida albicans [5] = assay: Induction of apoptosis in Candida albicans SC5314 assessed as increase in ROS level at 1 uM/ml incubated for 48 hrs by fluorescence microscopy; assay type: functional, organism-based
Candida albicans [6] = assay: Induction of apoptosis in Candida albicans SC5314 assessed as necrotic cells incubated for 48 hrs by annexin V-FITC/PI staining based flow cytometry (reference value: 2.12 %); assay type: functional
Candida tropicalis = assay: Antifungal activity against Candida tropicalis ATCC 1369 assessed as fungal growth inhibition incubated for 72 hrs by CLSI based susceptibility test; assay type: functional
[7] = biological target: T2, Lanosterol 14-alpha demethylase; assay: Inhibition of CYP51 in Candida albicans SC5314 using lanosterol as substrate incubated for 60 mins by HPLC analysis
Cryptococcus neoformans = assay: Antifungal activity against Cryptococcus neoformans ZKCC 2209 assessed as fungal growth inhibition incubated for 72 hrs by CLSI based susceptibility test; assay type: functional
[8] = biological target: T2, Lanosterol 14-alpha demethylase; assay: Inhibition of CYP51 in Candida albicans SC5314 assessed as lanosterol level at 4 ug/ml incubated for 16 hrs by GC-MS analysis relative to control; design: scale not given: the % may be the effect or the level left; conditions: at 4 µg/mL
Aspergillus fumigatus = assay: Antifungal activity against Aspergillus fumigatus KM8001 assessed as fungal growth inhibition incubated for 72 hrs by CLSI based susceptibility test; assay type: functional
Nakaseomyces glabratus = assay: Antifungal activity against Candida glabrata assessed as fungal growth inhibition incubated for 72 hrs by CLSI based susceptibility test; assay type: functional
Candida albicans [9] = assay: Antifungal activity against FLC-resistant Candida albicans CaR assessed as fungal growth inhibition incubated for 72 hrs by CLSI based susceptibility test; assay type: functional
Candida albicans [10] = assay: Antifungal activity against FLC-resistant Candida albicans 901 assessed as fungal growth inhibition incubated for 72 hrs by CLSI based susceptibility test; assay type: functional
Candida albicans [11] = assay: Induction of mitochondrial membrane depolarization in Candida albicans SC5314 by JC-1 staining based flow cytometry (reference value: 12.51 %); assay type: functional
Candida albicans [12] = assay: Induction of apoptosis in Candida albicans SC5314 assessed as apoptotic cells incubated for 48 hrs by annexin V-FITC/PI staining based flow cytometry (reference value: 2.12 %); assay type: functional
[13] = biological target: T2, Lanosterol 14-alpha demethylase; assay: Inhibition of CYP51 in Candida albicans SC5314 assessed as ergosterol level at 4 ug/ml incubated for 16 hrs by GC-MS analysis (reference value: 92.07 %); design: scale not given: the % may be the effect or the level left; conditions: at 4 µg/mL
Candida albicans [14] = assay: Antifungal activity against FLC-resistant Candida albicans 904 assessed as fungal growth inhibition incubated for 72 hrs by CLSI based susceptibility test; assay type: functional
[15] = biological target: T1, Programmed cell death 1 ligand 1; assay: Inhibition of human PD-L1 incubated for 15 mins by ELISA method
Candida albicans [16] = assay: Antifungal activity against Candida albicans SC5314 assessed as fungal growth inhibition incubated for 72 hrs by CLSI based susceptibility test; assay type: functional
Candida albicans [17] = assay: Antifungal activity against Candida albicans 901 infected in BALB/c mouse assessed as decrease in collagen fiber content at 0.5 ug/g administered 6 times measured after 4 days in presence of Ketoconazole by GMS staining based analysis; assay type: functional, organism-based; conditions: dose 0.5 µg/g, time 4.0 day
Candida albicans [18] = assay: Antifungal activity against Candida albicans 901 infected in BALB/c mouse assessed as inhibition of fungal proliferation at 0.5 ug/g administered 6 times measured after 4 days in presence of Ketoconazole by Masson staining based analysis; assay type: functional, organism-based; conditions: dose 0.5 µg/g, time 4.0 day
[19] = Toxicity in BALB/c mouse infected with Candida albicans 901 assessed as pathological change in lung at 0.5 ug/g administered 6 times measured after 4 days in presence of Ketoconazole by H and E staining based analysis; assay type: tissue-based; conditions: in vivo, 96 h, dose 0.5 µg/g, time 4 day
Candida albicans [20] = assay: Antifungal activity against Candida albicans 901 infected in BALB/c mouse assessed as repair of tissue damage at 0.5 ug/g administered 6 times measured after 4 days in presence of Ketoconazole by GMS staining based analysis; assay type: functional, organism-based; conditions: dose 0.5 µg/g, time 4.0 day
Candida albicans [21] = assay: Antifungal activity against Candida albicans 901 infected in BALB/c mouse assessed as inhibition of fungal proliferation at 0.5 ug/g administered 6 times measured after 4 days in presence of Ketoconazole by GMS staining based analysis; assay type: functional, organism-based; conditions: dose 0.5 µg/g, time 4.0 day
Candida albicans [22] = assay: Induction of immunity in BALB/c mouse infected with Candida albicans 901 assessed as decrease in PD-L1 level at 0.5 ug/g administered 6 times measured after 4 days in presence of Ketoconazole by Western blot analysis; assay type: functional, organism-based; conditions: dose 0.5 µg/g, time 4.0 day
Candida albicans [23] = assay: Antifungal activity against Candida albicans 901 infected in BALB/c mouse assessed as repair of tissue damage at 0.5 ug/g administered 6 times measured after 4 days in presence of Ketoconazole by Masson staining based analysis; assay type: functional, organism-based; conditions: dose 0.5 µg/g, time 4.0 day
Candida albicans [24] = assay: Antifungal activity against Candida albicans 901 infected in BALB/c mouse assessed as decrease in collagen fiber content at 0.5 ug/g administered 6 times measured after 4 days in presence of Ketoconazole by Masson staining based analysis; assay type: functional, organism-based; conditions: dose 0.5 µg/g, time 4.0 day
[25] = Toxicity in BALB/c mouse infected with Candida albicans 901 assessed as pathological change in spleen at 0.5 ug/g administered 6 times measured after 4 days in presence of Ketoconazole by H and E staining based analysis; assay type: tissue-based; conditions: in vivo, 96 h, dose 0.5 µg/g, time 4 day
[26] = Toxicity in BALB/c mouse infected with Candida albicans 901 assessed as pathological change in kidney at 0.5 ug/g administered 6 times measured after 4 days in presence of Ketoconazole by H and E staining based analysis; assay type: tissue-based; conditions: in vivo, 96 h, dose 0.5 µg/g, time 4 day
[27] = Toxicity in BALB/c mouse infected with Candida albicans 901 assessed as pathological change in liver at 0.5 ug/g administered 6 times measured after 4 days in presence of Ketoconazole by H and E staining based analysis; assay type: tissue-based; conditions: in vivo, 96 h, dose 0.5 µg/g, time 4 day
Candida albicans [28] = assay: Induction of immunity in BALB/c mouse infected with Candida albicans 901 assessed as decrease in PD-L1 level at 0.5 ug/g administered 6 times measured after 4 days in presence of Ketoconazole by IHC analysis; assay type: functional, organism-based; conditions: dose 0.5 µg/g, time 4.0 day
[29] = Toxicity in BALB/c mouse infected with Candida albicans 901 assessed as pathological change in heart at 0.5 ug/g administered 6 times measured after 4 days in presence of Ketoconazole by H and E staining based analysis; assay type: tissue-based; conditions: in vivo, 96 h, dose 0.5 µg/g, time 4 day

T1 sequence (Q9NZQ7 whole entry): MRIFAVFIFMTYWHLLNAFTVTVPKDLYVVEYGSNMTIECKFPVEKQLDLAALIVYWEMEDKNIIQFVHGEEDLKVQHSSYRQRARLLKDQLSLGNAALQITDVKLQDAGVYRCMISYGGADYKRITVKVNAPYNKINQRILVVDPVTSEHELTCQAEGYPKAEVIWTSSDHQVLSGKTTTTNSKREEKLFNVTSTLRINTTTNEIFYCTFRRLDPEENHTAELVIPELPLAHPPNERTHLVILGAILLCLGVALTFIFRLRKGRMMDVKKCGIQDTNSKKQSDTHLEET

Row | Structure (SMILES) | MIC50 (Candida albicans [2]) [µg/mL] | MIC50 (Candida albicans [4]) [µg/mL] | MIC50 (Candida tropicalis) [µg/mL] | MIC50 (Cryptococcus neoformans) [µg/mL] | MIC50 (Aspergillus fumigatus) [µg/mL] | MIC50 (Nakaseomyces glabratus) [µg/mL] | MIC50 (Candida albicans [9]) [µg/mL] | MIC50 (Candida albicans [10]) [µg/mL] | MIC50 (Candida albicans [14]) [µg/mL] | pIC50 [15] | MIC50 (Candida albicans [16]) [µg/mL] | other results
1 | CC(C)OC(=O)[C@@H](Cn1ccnc1)NC(=O)C1CCCN(C(=O)c2cccc(-c3ccccc3)c2)C1 (some centres undefined) | 4 (≈ 8.19 µM) | ≥ 8 | 0.5 (≈ 1.02 µM) | 0.5 (≈ 1.02 µM) | 2 (≈ 4.09 µM) | 0.25 (≈ 0.512 µM) | 2 (≈ 4.09 µM) | 4 (≈ 8.19 µM) | ≥ 8 | 7.20 | 0.25 (≈ 0.512 µM) | pKd [1]: 7.82; Activity [3]: 4.96%; Activity (Candida albicans [5]): Active; Activity (Candida albicans [6]): 25.91%; pIC50 [7]: 6.39; Activity [8]: 12.71%; Activity (Candida albicans [11]): 34.74%; Activity (Candida albicans [12]): 25.91%; Activity [13]: 16.08%
2 | COC(=O)[C@@H](Cn1ccnc1)NC(=O)C1CCCN(Cc2cccc(-c3ccccc3)c2C)C1 (some centres undefined) |  |  | 1 (≈ 2.17 µM) | 0.5 (≈ 1.09 µM) | 4 (≈ 8.68 µM) | 2 (≈ 4.34 µM) |  |  |  |  | 0.5 (≈ 1.09 µM) | 
3 | OC(Cn1cncn1)(Cn1cncn1)c1ccc(F)cc1F [FLUCONAZOLE] | ≥ 8 | ≥ 8 | 0.5 (≈ 1.63 µM) | 1 (≈ 3.27 µM) | > 8 | 0.25 (≈ 0.816 µM) | ≥ 8 | ≥ 8 | ≥ 8 |  | 0.5 (≈ 1.63 µM) | 
4 | Cc1c(CN2CCCC(C(=O)N[C@H](Cn3cncn3)C(=O)OC(C)C)C2)cccc1-c1ccccc1 (some centres undefined) | 2 (≈ 4.08 µM) | 4 (≈ 8.17 µM) | 0.25 (≈ 0.511 µM) | 1 (≈ 2.04 µM) | 2 (≈ 4.08 µM) | 0.5 (≈ 1.02 µM) | 4 (≈ 8.17 µM) | ≥ 8 | 4 (≈ 8.17 µM) | 7.46 | 0.125 (≈ 0.255 µM) | pKd [1]: 7.82; Activity [3]: 4.19%; Activity (Candida albicans [5]): Active; Activity (Candida albicans [6]): 25.91%; pIC50 [7]: 6.49; Activity [8]: 11.25%; Activity (Candida albicans [11]): 34.74%; Activity (Candida albicans [12]): 25.91%; Activity [13]: 14.71%
5 | Cc1c(CN2CCCC(C(=O)N[C@H](Cn3ccnc3)C(=O)OC(C)C)C2)cccc1-c1ccccc1 (some centres undefined) |  |  | 1 (≈ 2.05 µM) | 1 (≈ 2.05 µM) | > 8 | 0.5 (≈ 1.02 µM) |  |  |  |  | 0.5 (≈ 1.02 µM) | 
6 | CCOC(=O)[C@@H](Cn1ccnc1)NCc1cccc(OCc2cccc(-c3ccccc3)c2C)c1 |  |  | 0.5 (≈ 1.06 µM) | 1 (≈ 2.13 µM) | 4 (≈ 8.52 µM) | 1 (≈ 2.13 µM) |  |  |  |  | 0.5 (≈ 1.06 µM) | 
7 | O=C(O)[C@@H](CO)NCc1cc(Cl)c(OCc2cccc(-c3ccccc3)c2Br)cc1OCc1cccnc1 |  |  |  |  |  |  |  |  |  | 7.66 |  | Activity (Candida albicans [17]): Active; inhibition (Candida albicans [18]): Active; Activity [19]: Non-Toxic; Activity (Candida albicans [20]): Active; inhibition (Candida albicans [21]): Active; Activity (Candida albicans [22]): Active; Activity (Candida albicans [23]): Active; Activity (Candida albicans [24]): Active; Activity [25]: Non-Toxic; Activity [26]: Non-Toxic; Activity [27]: Non-Toxic; Activity (Candida albicans [28]): Active; Activity [29]: Non-Toxic
8 | COC(=O)[C@@H](Cn1cncn1)NC(=O)C1CCCN(Cc2cccc(-c3ccccc3)c2C)C1 (some centres undefined) |  |  | 1 (≈ 2.17 µM) | 2 (≈ 4.33 µM) | 4 (≈ 8.67 µM) | 2 (≈ 4.33 µM) |  |  |  |  | 0.5 (≈ 1.08 µM) | 
9 | CC(C)OC(=O)[C@@H](Cn1cncn1)NC(=O)C1CCCN(C(=O)c2cccc(-c3ccccc3)c2)C1 (some centres undefined) |  |  | 1 (≈ 2.04 µM) | 2 (≈ 4.09 µM) | 4 (≈ 8.17 µM) | 1 (≈ 2.04 µM) |  |  |  |  | 0.5 (≈ 1.02 µM) | 
